Assay results from paper PMC8612152, “Mapping Molecular Recognition of β1,3-1,4-Glucans by a Surface Glycan-Binding Protein from the Human Gut Symbiont Bacteroides ovatus” (Microbiology Spectrum, 2021).

How the values were obtained:
Type in all cases: binding
BoSGBPMLG-A [1] = biological target: T1, BoSGBPMLG-A (Bacteroides ovatus, UniProt A0AAN3A7L1); experiment: microscale thermophoresis; settings: 50 mM HEPES pH 7.5, 100 mM NaCl, 5 mM CaCl2, 5 mM TCEP, 0.05% Tween 20, 25°C; protein NT-647 labelled; one-site model
T1 construct: gene BACOVA_02743; residues 24-558, signal peptide and lipidation Cys excluded, N-terminal His6 tag (pHTP1-A57), expressed in E. coli BL21(DE3); NT-647 dye labelled for MST
T1 sequence (A0AAN3A7L1 24-558): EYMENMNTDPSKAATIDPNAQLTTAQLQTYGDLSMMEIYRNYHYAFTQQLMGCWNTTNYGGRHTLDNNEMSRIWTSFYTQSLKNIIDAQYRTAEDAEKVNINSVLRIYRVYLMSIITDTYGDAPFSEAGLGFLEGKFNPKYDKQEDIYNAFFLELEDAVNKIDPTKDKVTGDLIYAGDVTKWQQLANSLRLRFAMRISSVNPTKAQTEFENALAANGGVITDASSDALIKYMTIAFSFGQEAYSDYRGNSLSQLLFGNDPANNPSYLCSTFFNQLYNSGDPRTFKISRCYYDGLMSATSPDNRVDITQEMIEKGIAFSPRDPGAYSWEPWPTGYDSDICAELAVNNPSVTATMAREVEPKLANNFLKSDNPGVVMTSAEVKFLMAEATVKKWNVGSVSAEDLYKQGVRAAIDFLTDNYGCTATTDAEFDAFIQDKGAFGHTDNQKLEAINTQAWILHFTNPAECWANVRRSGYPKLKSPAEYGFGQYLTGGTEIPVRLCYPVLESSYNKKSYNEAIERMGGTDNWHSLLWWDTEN

BoSGBPMLG-A [2] = biological target: T1, BoSGBPMLG-A; experiment: microscale thermophoresis; settings: 50 mM HEPES pH 7.5, 100 mM NaCl, 5 mM CaCl2, 5 mM TCEP, 0.05% Tween 20, 25°C; protein NT-647 labelled; weak, affinity not determinable (ligand solubility)
BoSGBPMLG-A-ZB = biological target: T2, BoSGBPMLG-A-ZB (Bacteroides ovatus, UniProt A0AAN3A7L1); experiment: X-ray crystal structure of the complex, […] Å; settings: co-crystallised after overnight incubation with 0.33 mM ligand, 1 mM MgCl2; pH 5.5
T2 construct: gene BACOVA_02743; residues 39-558, N-terminal His6 and Zbasic (ZB) tag (pNIC-ZB), expressed in E. coli BL21(DE3); model covers residues 40-559 as printed; 68 kDa
T2 sequence (A0AAN3A7L1 39-558): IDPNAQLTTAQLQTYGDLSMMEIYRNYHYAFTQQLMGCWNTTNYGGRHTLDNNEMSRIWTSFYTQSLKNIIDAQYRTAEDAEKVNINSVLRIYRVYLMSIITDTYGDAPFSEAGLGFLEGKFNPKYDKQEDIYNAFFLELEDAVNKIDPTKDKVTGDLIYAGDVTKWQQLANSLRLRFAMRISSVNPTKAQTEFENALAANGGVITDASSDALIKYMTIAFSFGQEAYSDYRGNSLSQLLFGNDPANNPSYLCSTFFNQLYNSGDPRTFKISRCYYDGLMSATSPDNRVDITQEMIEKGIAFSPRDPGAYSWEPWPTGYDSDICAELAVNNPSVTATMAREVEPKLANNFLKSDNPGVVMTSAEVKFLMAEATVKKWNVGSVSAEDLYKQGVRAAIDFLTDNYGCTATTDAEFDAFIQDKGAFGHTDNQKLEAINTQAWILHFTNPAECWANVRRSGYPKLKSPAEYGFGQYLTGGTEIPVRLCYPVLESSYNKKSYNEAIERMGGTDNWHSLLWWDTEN

| Compound | Ka (BoSGBPMLG-A [1]) | microscale thermophoresis (BoSGBPMLG-A [2]) | X-ray crystal structure of the complex, 1.43 Å (BoSGBPMLG-A-ZB) |
| --- | --- | --- | --- |
| OC[C@H]1O[C@@H](O[C@H]2[C@H](O)[C@@H](O)[C@H](O[C@H]3[C@H](O)[C@@H](O)[C@H](O[C@@H]4[C@@H](O)[C@H](O[C@H]5[C@H](O)[C@@H](O)[C@H](O[C@H]6[C@H](O)[C@@H](O)[C@H](O[C@H]7[C@H](O)[C@@H](CO)OC(O)[C@@H]7O)O[C@@H]6CO)O[C@@H]5CO)O[C@H](CO)[C@H]4O)O[C@@H]3CO)O[C@@H]2CO)[C@H](O)[C@@H](O)[C@@H]1O (stereo partly drawn) [barley-7] | (1.06 ± 0.18) x 10^5 |  |  |
| OC[C@H]1O[C@@H](O[C@@H]2[C@@H](O)[C@H](O[C@H]3[C@H](O)[C@@H](O)[C@H](O[C@H]4[C@H](O)[C@@H](O)[C@H](O[C@@H]5[C@@H](O)[C@H](O[C@H]6[C@H](O)[C@@H](O)[C@H](O[C@H]7[C@H](O)[C@@H](O)[C@H](O[C@H]8[C@H](O)[C@@H](CO)OC(O)[C@@H]8O)O[C@@H]7CO)O[C@@H]6CO)O[C@H](CO)[C@H]5O)O[C@@H]4CO)O[C@@H]3CO)O[C@H](CO)[C@H]2O)[C@H](O)[C@@H](O)[C@@H]1O (stereo partly drawn) [barley-8] | (4.29 ± 1.15) x 10^5 |  |  |
| OC[C@H]1O[C@@H](O[C@H]2[C@H](O)[C@@H](O)[C@H](O[C@@H]3[C@@H](O)[C@H](O[C@H]4[C@H](O)[C@@H](O)[C@H](O[C@H]5[C@H](O)[C@@H](O)[C@H](O[C@H]6[C@H](O)[C@@H](CO)OC(O)[C@@H]6O)O[C@@H]5CO)O[C@@H]4CO)O[C@H](CO)[C@H]3O)O[C@@H]2CO)[C@H](O)[C@@H](O)[C@@H]1O (stereo partly drawn) [barley-6] | (1.53 ± 0.23) x 10^5 |  |  |
| OC[C@H]1O[C@@H](O[C@H]2[C@H](O)[C@@H](O)[C@H](O[C@H]3[C@H](O)[C@@H](O)[C@H](O[C@H]4[C@H](O)[C@@H](O)[C@H](O[C@H]5[C@H](O)[C@@H](O)[C@H](O[C@H]6[C@H](O)[C@@H](O)[C@H](O[C@H]7[C@H](O)[C@@H](O)C(O)O[C@@H]7CO)O[C@@H]6CO)O[C@@H]5CO)O[C@@H]4CO)O[C@@H]3CO)O[C@@H]2CO)[C@H](O)[C@@H](O)[C@@H]1O (stereo partly drawn) [cello-7] |  | For the more weakly binding cello-7, it was not possible to determine the affinity |  |
| OC[C@H]1O[C@@H](O[C@H]2[C@H](O)[C@@H](O)[C@H](O[C@@H]3[C@@H](O)[C@H](O[C@H]4[C@H](O)[C@@H](O)[C@H](O[C@H]5[C@H](O)[C@@H](O)[C@H](O[C@@H]6[C@@H](O)[C@H](O[C@H]7[C@H](O)[C@@H](O)[C@H](O[C@H]8[C@H](O)[C@@H](O)[C@H](O[C@H]9[C@H](O)[C@@H](CO)OC(O)[C@@H]9O)O[C@@H]8CO)O[C@@H]7CO)O[C@H](CO)[C@H]6O)O[C@@H]5CO)O[C@@H]4CO)O[C@H](CO)[C@H]3O)O[C@@H]2CO)[C@H](O)[C@@H](O)[C@@H]1O (stereo partly drawn) [barley-9] | (4.62 ± 1.02) × 10^5 |  | structure of BoSGBPMLG-A in complex with barley-9 (G4G3G4G4G3G4G4G3G) |
